Values quoted from earlier work, collected in US10544223B2, “Combination therapy with an anti-axl antibody-drug conjugate” (ADC THERAPEUTICS SA, priority 2017, dated 2020).

Tests used:
DNA repair genes = details: inhibition of AXL
AXL = details: incubation of tumor cells with MEKi
advanced melanoma = details: phase III trials, advanced melanoma patients

Compound	efficiency of the homologous recombination repair machinery (DNA repair genes)	expression of DNA repair genes (DNA repair genes)	accumulation of AXL on the membrane of tumor cells (AXL)	further results
Nc1nc(Nc2ccc3c(c2)CC[C@@H](N2CCCC2)CC3)nn1-c1cc2c(nn1)-c1ccccc1CCC2 [BGB324]	diminish the efficiency of the homologous recombination repair machinery	decrease expression of DNA repair genes	–	–
Fludarabine	–	–	–	ERCC1 transcription (ERCC1 transcription): suppress ERCC1 transcription
CN1CCN(Cc2ccc(Nc3ncc(Cl)c(Nc4ccccc4S(=O)(=O)N(C)C)n3)cc2)CC1 [TP0903]	diminish the efficiency of the homologous recombination repair machinery	decrease expression of DNA repair genes	–	–
N#CC(=C(/N)Sc1ccccc1N)/C(C#N)=C(\N)Sc1ccccc1N [U0126]	–	–	induced a strong accumulation of AXL	–
O=C(NOC[C@H](O)CO)c1ccc(F)c(F)c1Nc1ccc(I)cc1F [PD325901]	–	–	induced a strong accumulation of AXL	–
tremelimumab: anti-CTLA4 antibody	–	–	–	overall survival compared to the standard of care (temozolomide or dacarbazine) (advanced melanoma): did not significantly increase the overall survival
